Laboratory results taken from ChEMBL document CHEMBL3885881, “DrugMatrix”.

Species: Rattus norvegicus
Assay: DrugMatrix - Regimen: Daily Repeat
Type: toxicity, organism-based, Sprague-Dawley
Parameters: regimen Daily Repeat, gender Male, age 6-8 weeks
Conditions: in vivo, po, route oral GAVAGE, vehicle 100 % WATER; for ABSOLUTE BASOPHIL / ABSOLUTE EOSINOPHIL / ABSOLUTE LYMPHOCYTE / ABSOLUTE MONOCYTE / ABSOLUTE SEGMENTED NEUTROPHIL / BASOPHIL / EOSINOPHIL / ERYTHROCYTE COUNT / HEMATOCRIT / HEMOGLOBIN / LEUKOCYTE COUNT / LYMPHOCYTE / MEAN CORPUSCULAR HEMOGLOBIN / MEAN CORPUSCULAR HEMOGLOBIN CONCENTRATION / MEAN CORPUSCULAR VOLUME / MONOCYTE / NEUTROPHIL / NUCLEATED RED BLOOD CELLS / PLATELET COUNT: tissue Blood; for ALANINE AMINOTRANSFERASE / ALBUMIN / ALKALINE PHOSPHATASE / ASPARTATE AMINOTRANSFERASE / BLOOD UREA NITROGEN / CARBON DIOXIDE / CHLORIDE / CHOLESTEROL / CREATINE PHOSPHOKINASE / CREATININE / GLUCOSE / LACTATE DEHYDROGENASE / LIPASE / PHOSPHORUS / POTASSIUM / SODIUM / TOTAL BILIRUBIN / TOTAL PROTEIN / URIC ACID: tissue Plasma
[1] = 56 mg/kg, 120 h, dose level Low, time 5 day
[2] = 476 mg/kg, 72 h, dose level High, time 3 day
[3] = 476 mg/kg, 120 h, dose level High, time 5 day

Structure (SMILES): CC[C@H]1OC(=O)[C@H](C)[C@@H](O[C@H]2C[C@@](C)(OC)[C@@H](O)[C@H](C)O2)[C@H](C)[C@@H](O[C@@H]2O[C@H](C)C[C@H](N(C)C)[C@H]2O)[C@](C)(OC)C[C@@H](C)C(=O)[C@H](C)[C@@H](O)[C@]1(C)O [CLARITHROMYCIN]
- ABSOLUTE BASOPHIL [1]: 0 CELLS/uL
- ABSOLUTE EOSINOPHIL [1]: 40 CELLS/uL
- ABSOLUTE LYMPHOCYTE [1]: 7764 CELLS/uL
- ABSOLUTE MONOCYTE [1]: 32 CELLS/uL
- ABSOLUTE SEGMENTED NEUTROPHIL [1]: 364 CELLS/uL
- BASOPHIL [1]: 0%
- EOSINOPHIL [1]: 0.67%
- ERYTHROCYTE COUNT [1]: 5.84 x10E6/uL
- HEMATOCRIT [1]: 35.03%
- HEMOGLOBIN [1]: 13.63 G/DL
- LEUKOCYTE COUNT [1]: 8.2 x10E3/uL
- LYMPHOCYTE [1]: 94.67%
- MEAN CORPUSCULAR HEMOGLOBIN [1]: 23.37 pg
- MEAN CORPUSCULAR HEMOGLOBIN CONCENTRATION [1]: 38.9 G/DL
- MEAN CORPUSCULAR VOLUME [1]: 60.03 fL
- MONOCYTE [1]: 0.33%
- NEUTROPHIL [1]: 4.33%
- NUCLEATED RED BLOOD CELLS [1]: 0 /100WBC
- PLATELET COUNT [1]: 1127.33 x10E3/uL
- ALANINE AMINOTRANSFERASE [1]: 56 u/L
- ALBUMIN [1]: 3.97 G/DL
- ALKALINE PHOSPHATASE [1]: 322 u/L
- ASPARTATE AMINOTRANSFERASE [1]: 90.33 u/L
- BLOOD UREA NITROGEN [1]: 16.67 mg/dL
- CARBON DIOXIDE [1]: 34 mmol/L
- CHLORIDE [1]: 98.67 MEQ/L
- CHOLESTEROL [1]: 84 mg/dL
- CREATINE PHOSPHOKINASE [1]: 286 u/L
- CREATININE [1]: 0.11 mg/dL
- GLUCOSE [1]: 141 mg/dL
- LACTATE DEHYDROGENASE [1]: 125 u/L
- LIPASE [1]: 13 u/L
- PHOSPHORUS [1]: 11.17 mg/dL
- POTASSIUM [1]: 6.34 MEQ/L
- SODIUM [1]: 144.27 MEQ/L
- TOTAL BILIRUBIN [1]: 0.17 mg/dL
- TOTAL PROTEIN [1]: 5.97 G/DL
- URIC ACID [1]: 0.73 mg/dL
- ABSOLUTE BASOPHIL [2]: 0 CELLS/uL
- ABSOLUTE EOSINOPHIL [2]: 46 CELLS/uL
- ABSOLUTE LYMPHOCYTE [2]: 13692.67 CELLS/uL
- ABSOLUTE MONOCYTE [2]: 172 CELLS/uL
- ABSOLUTE SEGMENTED NEUTROPHIL [2]: 556 CELLS/uL
- BASOPHIL [2]: 0%
- EOSINOPHIL [2]: 0.33%
- ERYTHROCYTE COUNT [2]: 5.74 x10E6/uL
- HEMATOCRIT [2]: 36.57%
- HEMOGLOBIN [2]: 14.2 G/DL
- LEUKOCYTE COUNT [2]: 14.47 x10E3/uL
- LYMPHOCYTE [2]: 94.67%
- MEAN CORPUSCULAR HEMOGLOBIN [2]: 24.73 pg
- MEAN CORPUSCULAR HEMOGLOBIN CONCENTRATION [2]: 38.83 G/DL
- MEAN CORPUSCULAR VOLUME [2]: 63.7 fL
- MONOCYTE [2]: 1%
- NEUTROPHIL [2]: 4%
- NUCLEATED RED BLOOD CELLS [2]: 0 /100WBC
- PLATELET COUNT [2]: 1345 x10E3/uL
- ALANINE AMINOTRANSFERASE [2]: 55.33 u/L
- ALBUMIN [2]: 3.8 G/DL
- ALKALINE PHOSPHATASE [2]: 227.33 u/L
- ASPARTATE AMINOTRANSFERASE [2]: 72.33 u/L
- BLOOD UREA NITROGEN [2]: 8.33 mg/dL
- CARBON DIOXIDE [2]: 29.67 mmol/L
- CHLORIDE [2]: 99.33 MEQ/L
- CHOLESTEROL [2]: 68 mg/dL
- CREATINE PHOSPHOKINASE [2]: 191.67 u/L
- CREATININE [2]: 0.37 mg/dL
- GLUCOSE [2]: 161 mg/dL
- LACTATE DEHYDROGENASE [2]: 112 u/L
- LIPASE [2]: 28.67 u/L
- PHOSPHORUS [2]: 11.53 mg/dL
- POTASSIUM [2]: 6.1 MEQ/L
- SODIUM [2]: 142.2 MEQ/L
- TOTAL BILIRUBIN [2]: 0.13 mg/dL
- TOTAL PROTEIN [2]: 5.83 G/DL
- URIC ACID [2]: 1.23 mg/dL
- ABSOLUTE BASOPHIL [3]: 0 CELLS/uL
- ABSOLUTE EOSINOPHIL [3]: 0 CELLS/uL
- ABSOLUTE LYMPHOCYTE [3]: 10830 CELLS/uL
- ABSOLUTE MONOCYTE [3]: 144.67 CELLS/uL
- ABSOLUTE SEGMENTED NEUTROPHIL [3]: 592 CELLS/uL
- BASOPHIL [3]: 0%
- EOSINOPHIL [3]: 0%
- ERYTHROCYTE COUNT [3]: 5.53 x10E6/uL
- HEMATOCRIT [3]: 34.87%
- HEMOGLOBIN [3]: 13.93 G/DL
- LEUKOCYTE COUNT [3]: 11.57 x10E3/uL
- LYMPHOCYTE [3]: 94%
- MEAN CORPUSCULAR HEMOGLOBIN [3]: 25.2 pg
- MEAN CORPUSCULAR HEMOGLOBIN CONCENTRATION [3]: 40 G/DL
- MEAN CORPUSCULAR VOLUME [3]: 63.07 fL
- MONOCYTE [3]: 1%
- NEUTROPHIL [3]: 5%
- NUCLEATED RED BLOOD CELLS [3]: 0 /100WBC
- PLATELET COUNT [3]: 1171.67 x10E3/uL
- ALANINE AMINOTRANSFERASE [3]: 58 u/L
- ALBUMIN [3]: 3.67 G/DL
- ALKALINE PHOSPHATASE [3]: 256.67 u/L
- ASPARTATE AMINOTRANSFERASE [3]: 67 u/L
- BLOOD UREA NITROGEN [3]: 13.33 mg/dL
- CARBON DIOXIDE [3]: 34.67 mmol/L
- CHLORIDE [3]: 98 MEQ/L
- CHOLESTEROL [3]: 64.33 mg/dL
- CREATINE PHOSPHOKINASE [3]: 178.33 u/L
- CREATININE [3]: 0.18 mg/dL
- GLUCOSE [3]: 126.67 mg/dL
- LACTATE DEHYDROGENASE [3]: 105.33 u/L
- LIPASE [3]: 11.67 u/L
- PHOSPHORUS [3]: 9.63 mg/dL
- POTASSIUM [3]: 6.01 MEQ/L
- SODIUM [3]: 142.53 MEQ/L
- TOTAL BILIRUBIN [3]: 0.13 mg/dL
- TOTAL PROTEIN [3]: 5.9 G/DL
- URIC ACID [3]: 0.6 mg/dL
